What was measured:
Assay type in all cases: cell-based, mouse
[1] = test system: MC3T3 cells; experiment: Cell proliferation / cell viability XTT assay; settings: retinol 0.3 to 30 μM, absence of aCa-polyP-NP, 72 h
Method: (§1) Mouse calvaria cells MC3T3-E1 cells (ATCC-CRL-2593) are used for the experiments and cultivated in a-MEM (Gibco—Invitrogen) containing 20% fetal calf serum [FCS] (Gibco). The medium contains 2 mM L-glutamine, 1 mM Na-pyruvate and 50 μg/ml of gentamycin. […] Reaching 80% confluency, the cells are detached using trypsin/EDTA and continuously subcultured at a density of 5·10^3 cells/ml. The cells are seeded at a density of 5·10^3 cells/well. Medium/serum change was every 3 d.
The aCa-polyP-NP are added at the indicated concentration to the cultures, usually 3 μg/ml. Retinol is added in parallel; it is dissolved at 1 mg/ml ethanol and then diluted in DMSO [dimethyl sulfoxide] at the indicated concentrations. […]
Cell proliferation can be determined, for example, by a colorimetric method based on the tetrazolium salt XTT (Cell Proliferation Kit II; Roche). The absorbance is determined at […] and subtracted form the background values (500 nm). In the experiments described in Examples, the viable cells have been determined after 72 h.

[2] = test system: MC3T3 cells; experiment: Microscopic density of attached cells after 72 h; settings: single component: aCa-polyP-NP 3 μg/ml or retinol 10 μM
Method: as §1
This synergistically-acting effect of the two test components can also be followed microscopically. In the absence of any of the components the density of the MC3T3 cells after the 72 h incubation is only low. […] Likewise low is the number of cells onto the plastic surface if 10 μM retinol is added.

[3] = test system: collagen type III (COL-III); experiment: Collagen expression RT-qPCR in MC3T3-E1 cells, collagen type III; settings: single component: 3 μM retinol alone, or polyP sample in the absence of retinol; untreated 0.17±0.02
Method: Mouse calvaria cells MC3T3-E1 cells (ATCC-CRL-2593) are used for the experiments and cultivated in a-MEM (Gibco-Invitrogen) containing 20% fetal calf serum [FCS] (Gibco). The medium contains 2 mM L-glutamine, 1 mM Na-pyruvate and 50 μg/ml of gentamycin. […] Reaching 80% confluency, the cells are detached using trypsin/EDTA and continuously subcultured at a density of 5·10^3 cells/ml. The cells are seeded at a density of 5·10^3 cells/well. Medium/serum change was every 3 d. The aCa-polyP-NP are added at the indicated concentration to the cultures, usually 3 μg/ml. Retinol is added in parallel; it is dissolved at 1 mg/ml ethanol and then diluted in DMSO [dimethyl sulfoxide] at the indicated concentrations. […], Wang […], Kropf […]. […] Acta Biomaterialia 2011; 7:2661-2671) is studied in parallel. […] After a 5 d incubation period the cells were collected and subjected to RT-qPCR analyses. […] The effect of 3 μM retinol on Na-polyP and on different nanoparticles as well as on the retinol/nanospheres was tested in a comparative way. The expression level of collagen type III was determined by RT-qPCR (FIG. 11). The expression values are correlated to the expression of the house-keeping gene GAPDH. […] Then the ratios between the levels in the cells, exposed to retinol or the nanoparticles/nanospheres alone or together, have been calculated and plotted.

CC1=C(/C=C/C(C)=C/C=C/C(C)=C/CO)C(C)(C)CCC1 [retinol, all-trans retinol]
growth rate of the MC3T3 cells [1]: did not change significantly
density of the cells attached to the substrate [2]: low
collagen type III expression level correlated to GAPDH [3]: 0.25±0.03

— US10307350B2, “Morphogenetically active amorphous calcium polyphosphate nanoparticles for therapeutic applications” (NanotecMARIN GmbH, priority 2014, dated 2019)
